Results taken from patent publication US12252524B2, “GIP/GLP1 co-agonist compounds” (Eli Lilly and Company, priority 2018, dated 2025).
Numbered stars: 1 amine (or outer) side, 2 acyl side, 3 side chain; on linkers, the order of the positions; unused ones are H or OH. Square brackets hold non-standard residues; d marks the D form. Side chains are listed from the residue outwards. Peptide text beside a SMILES is read from it. * marks the point of attachment. C20 diacid = O=C(O)CCCCCCCCCCCCCCCCCCC(=O)*; γGlu = O=C(O)[C@H](CCC(=O)[*:2])N[*:1]; αMeL = CC(C)C[C@](C)(N)C(=O)O; AEEA = NCCOCCOCC(=O)O; Aib = CC(C)(N)C(=O)O

Experiments:
[1] = target: human GLP-1 receptor (GLP-1R) (Homo sapiens, UniProt P43220); assay: cAMP pharmacological functional assay in presence of casein, hGLP-1R; assay type: cell-based; conditions: HEK293 cells expressing hGLP-1R, 0.1% Casein, geometric mean; read-out: hGLP1R cAMP Rel EC50 nM (SEM, n)
Sequence of human GLP-1 receptor (GLP-1R) (P43220 24-463): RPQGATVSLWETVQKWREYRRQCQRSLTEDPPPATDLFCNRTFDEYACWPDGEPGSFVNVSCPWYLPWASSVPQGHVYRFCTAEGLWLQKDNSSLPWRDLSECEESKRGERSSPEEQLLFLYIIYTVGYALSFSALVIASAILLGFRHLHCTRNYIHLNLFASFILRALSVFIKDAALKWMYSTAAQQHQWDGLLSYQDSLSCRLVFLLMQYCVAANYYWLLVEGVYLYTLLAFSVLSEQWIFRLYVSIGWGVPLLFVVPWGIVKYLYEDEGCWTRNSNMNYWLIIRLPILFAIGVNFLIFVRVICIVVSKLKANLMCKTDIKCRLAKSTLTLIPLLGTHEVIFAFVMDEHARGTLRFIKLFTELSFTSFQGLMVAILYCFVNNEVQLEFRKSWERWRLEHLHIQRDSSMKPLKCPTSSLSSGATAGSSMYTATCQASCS

human GLP-1R [2] = target: T1, human GLP-1R (Homo sapiens, UniProt P43220); assay: GLP-1R CHO cell β-arrestin recruitment assay; assay type: cell-based; set-up: host or cells: CHO-K1 PathHunter cells, assay-ready frozen; conditions: for EC50: CHO-K1 cells, PathHunter β-arrestin-2 recruitment, 0.1% casein, read-out: hGLP1R B-Arrestin2 Rel EC50 uM (SEM, n); for hGLP1R B-Arrestin2 % Top: normalized to GLP-1 maximum control
T1 sequence (P43220 24-463): as above
Procedure, shortened: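 Peptide-induced β-arrestin-2 recruitment measured by enzyme-fragment complementation luminescence after 90 min at 37 °C plus 60 min detection at RT.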

[3] = target: T2, gastric inhibitory peptide receptor (GIPR) (Homo sapiens, UniProt P48546); assay: cAMP pharmacological functional assay in presence of casein, hGIPR; assay type: cell-based; conditions: HEK293 cells expressing hGIPR, 0.1% Casein, geometric mean; read-out: hGIPR cAMP Rel EC50 nM (SEM, n)
T2 sequence (P48546 22-466): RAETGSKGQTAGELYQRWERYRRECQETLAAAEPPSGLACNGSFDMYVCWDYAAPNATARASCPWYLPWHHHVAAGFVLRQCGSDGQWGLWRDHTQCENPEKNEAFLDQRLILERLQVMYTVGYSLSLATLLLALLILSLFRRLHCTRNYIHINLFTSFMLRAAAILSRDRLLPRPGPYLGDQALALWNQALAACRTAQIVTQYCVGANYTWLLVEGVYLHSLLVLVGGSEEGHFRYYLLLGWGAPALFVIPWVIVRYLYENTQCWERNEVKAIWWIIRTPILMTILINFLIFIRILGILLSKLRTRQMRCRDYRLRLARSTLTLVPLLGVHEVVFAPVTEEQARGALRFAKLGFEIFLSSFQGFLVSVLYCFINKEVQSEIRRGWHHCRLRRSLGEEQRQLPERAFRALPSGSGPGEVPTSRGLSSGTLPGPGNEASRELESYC

human GLP-1R [4] = target: T1, human GLP-1R; assay: GLP-1R HEK293 cell membrane [35S]GTPγS binding assay; assay type: biochemical; set-up: expressed in transfected cells; host or cells: HEK293 cells expressing human GLP-1R; membranes; conditions: HEK293 cell membranes expressing human GLP-1R, [35S]GTPγS binding; read-out: hGLP1R GTPgS Rel EC50 nM (SEM, n)
Procedure, shortened: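 Agonist-driven Gαs activation read as [35S]GTPγS ([…]) binding to receptor-expressing HEK293 membranes, 30 min at room temperature, pH 7.4. Detection by anti-Gαs immunocapture on scintillation beads; EC50 derived from four-parameter logistic concentration-response fit.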

human GIP receptor = target: T3, human GIP receptor (Homo sapiens, UniProt P48546); assay: [125I]-GIP binding (SPA), human GIP receptor; conditions: read-out: hGIPR Ki, nM (SEM, n)
T3 construct: expressed in transfected cells; crude membranes
T3 sequence (P48546 22-466): T2 sequence (P48546 22-466)

human GLP-1R [5] = target: T1, human GLP-1R; assay: [125I]-GLP-1 binding (SPA), human GLP-1 receptor; set-up: expressed in transfected cells; crude membranes; conditions: read-out: hGLP1R Ki, (nM) (SEM, n)
Procedure, shortened: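 Frozen cell pellets are lysed on ice in hypotonic Tris buffer, pH 7.5, homogenized, and centrifuged to a membrane pellet resuspended at about 1 to 3 mg/mL. Binding is then measured in HEPES-based buffer at pH 7.4, and curves are fitted to give IC50 and Ki.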

human Gcg receptor = target: T4, human Gcg receptor (Homo sapiens, UniProt P47871); assay: [125I]-Glucagon binding (SPA), human Gcg receptor; conditions: read-out: hGLcgR Ki, nM (SEM, n)
T4 construct: expressed in transfected cells; crude membranes
T4 sequence (P47871 26-477): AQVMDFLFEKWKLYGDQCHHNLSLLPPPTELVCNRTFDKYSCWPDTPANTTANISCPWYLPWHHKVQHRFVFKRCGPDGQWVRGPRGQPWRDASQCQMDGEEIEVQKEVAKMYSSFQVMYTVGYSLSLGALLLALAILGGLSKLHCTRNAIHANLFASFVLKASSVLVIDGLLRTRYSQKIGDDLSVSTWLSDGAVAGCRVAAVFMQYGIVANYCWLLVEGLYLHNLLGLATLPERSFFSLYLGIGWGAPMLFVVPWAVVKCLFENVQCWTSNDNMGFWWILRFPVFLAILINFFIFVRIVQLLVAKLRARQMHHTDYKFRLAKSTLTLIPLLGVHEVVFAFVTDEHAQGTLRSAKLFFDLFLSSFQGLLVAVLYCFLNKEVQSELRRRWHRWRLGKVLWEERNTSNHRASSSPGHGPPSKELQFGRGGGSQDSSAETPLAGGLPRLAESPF
Procedure, shortened: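 Scintillation counts are taken after membranes and WGA beads incubate and settle for 12 hours at room temperature. Buffer is 25 mM HEPES, pH 7.4, with CaCl2, MgCl2, bacitracin and Tween-20. Ki values, from four-parameter IC50 fits, are geometric means over independent days.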

SMILES | EC50 [1] | EC50 (human GLP-1R [2]) | hGLP1R B-Arrestin2 % Top (human GLP-1R [2]) | EC50 [3] | EC50 (human GLP-1R [4]) | Ki (human GIP receptor) | Ki (human GLP-1R [5]) | Ki (human Gcg receptor)
CC[C@H](C)[C@H](NC(=O)[C@H](CC(C)C)NC(=O)[C@H](Cc1ccc(O)cc1)NC(=O)[C@H](CCC(=O)O)NC(=O)[C@@H](NC(=O)[C@H](Cc1ccccc1)NC(=O)[C@H](C)NC(=O)C(C)(C)NC(=O)[C@H](CCC(N)=O)NC(=O)[C@H](C)NC(=O)[C@H](CCCCNC(=O)COCCOCCNC(=O)COCCOCCNC(=O)CC[C@H](NC(=O)CCCCCCCCCCCCCCCCCCC(=O)O)C(=O)O)NC(=O)[C@H](CCCCN)NC(=O)[C@H](CC(=O)O)NC(=O)[C@H](CC(C)C)NC(=O)[C@](C)(CC(C)C)NC(=O)[C@@H](NC(=O)[C@H](CO)NC(=O)[C@H](Cc1ccc(O)cc1)NC(=O)[C@H](CC(=O)O)NC(=O)[C@H](CO)NC(=O)[C@@H](NC(=O)[C@H](Cc1ccccc1)NC(=O)[C@@H](NC(=O)CNC(=O)[C@H](CCC(=O)O)NC(=O)C(C)(C)NC(=O)[C@@H](N)Cc1ccccc1)[C@@H](C)O)[C@@H](C)O)[C@@H](C)CC)[C@@H](C)CC)C(=O)N[C@@H](C)C(=O)NCC(=O)NCC(=O)N1CCC[C@H]1C(=O)N[C@@H](CO)C(=O)N[C@@H](CO)C(=O)NCC(=O)N[C@@H](C)C(=O)N1CCC[C@H]1C(=O)N1CCC[C@H]1C(=O)N1CCC[C@H]1C(=O)N[C@@H](CO)C(N)=O [Example 337] (H-F[Aib]EGTFTSDYSI[αMeL]LDKK([AEEA-AEEA-γGlu-C20 diacid])AQ[Aib]AFIEYLIAGGPSSGAPPPS-NH2) | 0.173 nM | 0.0174 µM | 34.1% | 0.0515 nM | 0.322 nM | 0.0363 nM | 1.61 nM | 335 nM
CC[C@H](C)[C@H](NC(=O)[C@H](CC(C)C)NC(=O)[C@H](Cc1ccc(O)cc1)NC(=O)[C@H](CCC(=O)O)NC(=O)[C@@H](NC(=O)[C@H](Cc1ccccc1)NC(=O)[C@H](CCC(=O)O)NC(=O)C(C)(C)NC(=O)[C@H](CCC(N)=O)NC(=O)[C@H](C)NC(=O)[C@H](CCCCNC(=O)COCCOCCNC(=O)CC[C@H](NC(=O)CCCCCCCCCCCCCCCCCCC(=O)O)C(=O)O)NC(=O)[C@H](CCCCN)NC(=O)[C@H](CC(=O)O)NC(=O)[C@H](CC(C)C)NC(=O)[C@](C)(CC(C)C)NC(=O)[C@@H](NC(=O)[C@H](CO)NC(=O)[C@H](Cc1ccc(O)cc1)NC(=O)[C@H](CC(=O)O)NC(=O)[C@H](CO)NC(=O)[C@@H](NC(=O)[C@H](Cc1ccccc1)NC(=O)[C@@H](NC(=O)CNC(=O)[C@H](CCC(=O)O)NC(=O)C(C)(C)NC(=O)[C@@H](N)Cc1ccc(O)cc1)[C@@H](C)O)[C@@H](C)O)[C@@H](C)CC)[C@@H](C)CC)C(=O)N[C@@H](C)C(=O)NCC(=O)NCC(=O)N1CCC[C@H]1C(=O)N[C@@H](CO)C(=O)N[C@@H](CO)C(=O)NCC(=O)N[C@@H](C)C(=O)N1CCC[C@H]1C(=O)N1CCC[C@H]1C(=O)N1CCC[C@H]1C(=O)N[C@@H](CO)C(N)=O [Example 339] (H-Y[Aib]EGTFTSDYSI[αMeL]LDKK([AEEA-γGlu-C20 diacid])AQ[Aib]EFIEYLIAGGPSSGAPPPS-NH2) | 0.0986 nM | 0.0107 µM | 44.0% | 0.0219 nM | 0.326 nM | 0.0388 nM | 2.69 nM | 873 nM
